Measured values: ChEMBL document CHEMBL1201862, “PubChem BioAssay data set” (2004)
Active and inactive are the calls of the source.

Experiments:
Protein Wnt-3a = Protein Wnt-3a (Mus musculus, UniProt P27467); assay: antagonism of Wnt3a pathway luciferase reporter – Wnt-LIGHT cells, luminescence, selectivity assay for Gli-SUFU antagonist project, dose response (AID 651570); type: functional; settings: read-out: IC50_Mean;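 further: Wnt-LIGHT reporter cells stimulated with conditioned medium from Wnt3a-producing cells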
Chain of Protein Wnt-3a (P27467 whole entry): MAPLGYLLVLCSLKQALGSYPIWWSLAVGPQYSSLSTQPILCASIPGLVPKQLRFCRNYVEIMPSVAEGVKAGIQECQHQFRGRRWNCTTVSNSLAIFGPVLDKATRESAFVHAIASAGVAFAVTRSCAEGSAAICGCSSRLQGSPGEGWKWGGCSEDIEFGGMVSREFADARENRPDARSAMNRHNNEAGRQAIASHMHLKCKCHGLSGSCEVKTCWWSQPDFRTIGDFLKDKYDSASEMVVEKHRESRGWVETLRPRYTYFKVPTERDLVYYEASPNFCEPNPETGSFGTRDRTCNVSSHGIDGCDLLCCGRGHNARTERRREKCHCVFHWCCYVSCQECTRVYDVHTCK

[1] = target: T1, Heat shock factor protein 1 (Mus musculus, UniProt P38532); assay: decrease of HSF1-responsive luciferase luminescence – cell-based, NIH3T3, dose retest, confirmation (AID 2382); type: functional;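 further: NIH3T3 fibroblasts with HSF1-driven luciferase reporter stressed by proteasome inhibitor MG132; luminescence from HSF1-driven luciferase expression after 8 hours of MG132 stress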
T1 sequence (P38532 whole entry): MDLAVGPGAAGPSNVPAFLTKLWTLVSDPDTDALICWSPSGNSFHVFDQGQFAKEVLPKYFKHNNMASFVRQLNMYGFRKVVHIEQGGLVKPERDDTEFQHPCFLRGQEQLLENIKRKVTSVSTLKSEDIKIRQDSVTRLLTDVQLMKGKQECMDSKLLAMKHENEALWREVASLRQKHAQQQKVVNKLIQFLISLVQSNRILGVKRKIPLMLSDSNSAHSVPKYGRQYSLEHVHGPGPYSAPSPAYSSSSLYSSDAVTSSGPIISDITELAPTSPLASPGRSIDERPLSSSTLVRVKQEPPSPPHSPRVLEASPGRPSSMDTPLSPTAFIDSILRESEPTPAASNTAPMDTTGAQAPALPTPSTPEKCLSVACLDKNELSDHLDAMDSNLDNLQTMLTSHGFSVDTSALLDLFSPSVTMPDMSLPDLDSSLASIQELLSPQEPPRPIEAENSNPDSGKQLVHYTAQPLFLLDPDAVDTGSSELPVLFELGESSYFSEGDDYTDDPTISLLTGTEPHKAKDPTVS

[2] = target: Arf-GAP with SH3 domain, ANK repeat and PH domain-containing protein 1 (Homo sapiens, UniProt Q9ULH1); type: functional;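 further: biochemical fluorescence polarization dose–response screen measuring inhibition of ASAP1; ASAP1 GAP domain stimulating GTP hydrolysis by truncated human ARF1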
Chain of Arf-GAP with SH3 domain, ANK repeat and PH domain-containing protein 1 (Q9ULH1 whole entry, the tested form may be a part): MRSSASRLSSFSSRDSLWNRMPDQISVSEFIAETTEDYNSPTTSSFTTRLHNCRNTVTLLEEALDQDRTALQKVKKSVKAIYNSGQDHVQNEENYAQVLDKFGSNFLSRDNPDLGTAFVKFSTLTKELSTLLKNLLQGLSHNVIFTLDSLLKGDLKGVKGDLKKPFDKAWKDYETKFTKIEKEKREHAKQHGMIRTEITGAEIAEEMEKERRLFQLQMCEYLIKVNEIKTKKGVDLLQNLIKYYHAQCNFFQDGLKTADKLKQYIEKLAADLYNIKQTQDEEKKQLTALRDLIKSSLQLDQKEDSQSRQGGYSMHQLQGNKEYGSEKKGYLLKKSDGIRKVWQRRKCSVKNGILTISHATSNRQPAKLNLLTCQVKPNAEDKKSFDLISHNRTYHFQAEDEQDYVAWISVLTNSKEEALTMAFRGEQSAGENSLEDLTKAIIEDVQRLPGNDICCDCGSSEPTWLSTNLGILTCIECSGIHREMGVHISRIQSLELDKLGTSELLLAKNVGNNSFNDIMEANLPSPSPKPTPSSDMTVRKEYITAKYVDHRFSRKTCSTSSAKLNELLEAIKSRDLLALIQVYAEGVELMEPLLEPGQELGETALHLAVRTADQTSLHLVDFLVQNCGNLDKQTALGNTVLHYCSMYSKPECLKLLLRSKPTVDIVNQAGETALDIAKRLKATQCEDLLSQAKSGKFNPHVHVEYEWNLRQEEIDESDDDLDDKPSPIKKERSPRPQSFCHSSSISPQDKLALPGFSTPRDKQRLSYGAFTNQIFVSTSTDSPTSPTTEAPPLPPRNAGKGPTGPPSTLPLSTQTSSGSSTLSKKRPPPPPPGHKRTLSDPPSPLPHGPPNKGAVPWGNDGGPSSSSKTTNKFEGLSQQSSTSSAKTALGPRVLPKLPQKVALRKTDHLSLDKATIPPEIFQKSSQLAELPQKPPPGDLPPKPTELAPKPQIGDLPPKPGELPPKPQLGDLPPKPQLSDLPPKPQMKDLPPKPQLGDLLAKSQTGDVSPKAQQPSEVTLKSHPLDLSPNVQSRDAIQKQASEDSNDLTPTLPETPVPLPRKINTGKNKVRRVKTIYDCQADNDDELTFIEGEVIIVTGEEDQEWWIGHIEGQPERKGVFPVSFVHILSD

[3] = Luminescence Cell-Based Dose Response HTS to Identify Activators of Luciferase Translation or Activity in H4 […] Cells. [Related pubchem assays: 1829 (Project Summary), 1814 (Primary HTS)]; type: functional
H4 = assay: Luminescence Cell-Based Dose Response HTS to Identify Activators of 5'UTR Stem-Loop Driven Prion Protein mRNA Translation in H4 Neuroglioblastoma Cells. [Related pubchem assays: 1829 (Project Summary), 1814 (Primary HTS)]; type: functional; settings: Homo sapiens
Phospholipase A2 = Phospholipase A2 (Homo sapiens, UniProt P04054); type: functional;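 further: confirmatory dose-response counterscreen on phospholipase A2, testing hits that came from an ultra-high-throughput screen for ATG4B inhibitors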
Chain of Phospholipase A2 (P04054 whole entry): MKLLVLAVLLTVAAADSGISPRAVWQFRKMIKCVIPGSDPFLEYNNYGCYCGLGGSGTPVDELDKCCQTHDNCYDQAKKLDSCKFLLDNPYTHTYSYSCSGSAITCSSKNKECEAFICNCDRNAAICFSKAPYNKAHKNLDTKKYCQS

Cysteine protease ATG4B = target: T2, Cysteine protease ATG4B (Homo sapiens, UniProt Q9Y4P1); type: functional;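 further: Fluorescence-based dose-response confirmation assay measuring inhibition of ATG4B activity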
T2 sequence (Q9Y4P1 whole entry): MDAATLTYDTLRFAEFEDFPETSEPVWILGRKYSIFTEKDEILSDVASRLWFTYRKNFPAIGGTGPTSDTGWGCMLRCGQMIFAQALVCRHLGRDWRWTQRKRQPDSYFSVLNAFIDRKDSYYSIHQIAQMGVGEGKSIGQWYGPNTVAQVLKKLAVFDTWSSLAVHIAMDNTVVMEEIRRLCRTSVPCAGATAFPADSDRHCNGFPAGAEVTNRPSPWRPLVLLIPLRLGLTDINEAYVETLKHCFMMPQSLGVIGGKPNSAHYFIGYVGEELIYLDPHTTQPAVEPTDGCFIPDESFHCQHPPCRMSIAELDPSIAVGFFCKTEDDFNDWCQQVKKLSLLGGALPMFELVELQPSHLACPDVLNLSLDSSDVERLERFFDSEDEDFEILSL

[4] = Luminescence Cell-Based Dose Confirmation HTS to Identify Activators of 5'UTR Stem-Loop Driven Alpha-Synuclein mRNA Translation in H4 Neuroglioblastoma Cells. [Related pubchem assays: 1829 (Project Summary), 1814 (Primary HTS)]; type: functional
[5] = target: T3, DNA repair and recombination protein RAD54-like (Homo sapiens, UniProt Q92698); assay: RAD54 Holliday junction migration blockers – biochemical, fluorescence, cherry-picked samples, dose series, confirmation (AID 651657); type: functional
T3 sequence (Q92698 whole entry): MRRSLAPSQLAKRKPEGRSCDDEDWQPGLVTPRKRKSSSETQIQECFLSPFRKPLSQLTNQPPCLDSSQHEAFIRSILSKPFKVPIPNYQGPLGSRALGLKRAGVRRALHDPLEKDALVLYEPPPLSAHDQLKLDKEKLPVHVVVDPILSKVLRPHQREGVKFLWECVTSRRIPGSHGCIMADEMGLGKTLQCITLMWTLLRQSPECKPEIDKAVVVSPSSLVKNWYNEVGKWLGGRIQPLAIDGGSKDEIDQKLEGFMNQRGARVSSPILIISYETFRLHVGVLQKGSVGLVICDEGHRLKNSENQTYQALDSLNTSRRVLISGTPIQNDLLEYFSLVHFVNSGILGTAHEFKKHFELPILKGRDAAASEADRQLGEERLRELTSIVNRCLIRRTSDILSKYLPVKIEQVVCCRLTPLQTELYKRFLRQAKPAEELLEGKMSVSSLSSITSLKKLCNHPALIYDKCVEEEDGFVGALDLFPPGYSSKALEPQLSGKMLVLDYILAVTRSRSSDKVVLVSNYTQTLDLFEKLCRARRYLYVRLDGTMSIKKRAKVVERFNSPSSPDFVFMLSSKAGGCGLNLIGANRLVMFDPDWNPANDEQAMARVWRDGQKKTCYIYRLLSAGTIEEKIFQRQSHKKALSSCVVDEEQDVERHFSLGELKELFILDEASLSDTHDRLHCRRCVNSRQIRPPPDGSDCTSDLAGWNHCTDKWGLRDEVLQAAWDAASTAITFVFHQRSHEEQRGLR

[6] = target: T4, DNA repair protein RAD52 homolog (Homo sapiens, UniProt P43351); type: functional, biochemical
T4 sequence (P43351 whole entry): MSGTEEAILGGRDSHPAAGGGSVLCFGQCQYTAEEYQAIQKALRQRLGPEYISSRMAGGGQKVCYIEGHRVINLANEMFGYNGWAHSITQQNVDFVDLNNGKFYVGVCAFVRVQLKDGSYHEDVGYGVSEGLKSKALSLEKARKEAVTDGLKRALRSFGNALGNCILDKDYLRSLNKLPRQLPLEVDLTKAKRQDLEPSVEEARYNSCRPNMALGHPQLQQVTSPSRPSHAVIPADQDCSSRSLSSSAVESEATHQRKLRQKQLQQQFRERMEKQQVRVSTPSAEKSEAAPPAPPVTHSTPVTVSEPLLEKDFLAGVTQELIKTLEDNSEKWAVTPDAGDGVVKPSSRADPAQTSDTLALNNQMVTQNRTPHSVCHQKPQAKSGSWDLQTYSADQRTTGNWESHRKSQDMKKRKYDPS

[7] = Counterscreen for activators of the function of SWI/SNF related, matrix associated, actin dependent regulator of chromatin, subfamily a, member 2 (SMARCA2, BRM): Luminescence-based cell-based high throughput dose response assay to identify non-selective compounds using the VP16 reporter assay.; type: functional
[8] = target: SWI/SNF-related matrix-associated actin-dependent regulator of chromatin subfamily A member 2 (Homo sapiens, UniProt P51531); assay: Luminescence-based cell-based high throughput dose response assay to identify activators of the function of SWI/SNF related, matrix associated, actin dependent regulator of chromatin, subfamily a, member 2 (SMARCA2, BRM).; type: functional
Chain of SWI/SNF-related matrix-associated actin-dependent regulator of chromatin subfamily A member 2 (P51531 whole entry): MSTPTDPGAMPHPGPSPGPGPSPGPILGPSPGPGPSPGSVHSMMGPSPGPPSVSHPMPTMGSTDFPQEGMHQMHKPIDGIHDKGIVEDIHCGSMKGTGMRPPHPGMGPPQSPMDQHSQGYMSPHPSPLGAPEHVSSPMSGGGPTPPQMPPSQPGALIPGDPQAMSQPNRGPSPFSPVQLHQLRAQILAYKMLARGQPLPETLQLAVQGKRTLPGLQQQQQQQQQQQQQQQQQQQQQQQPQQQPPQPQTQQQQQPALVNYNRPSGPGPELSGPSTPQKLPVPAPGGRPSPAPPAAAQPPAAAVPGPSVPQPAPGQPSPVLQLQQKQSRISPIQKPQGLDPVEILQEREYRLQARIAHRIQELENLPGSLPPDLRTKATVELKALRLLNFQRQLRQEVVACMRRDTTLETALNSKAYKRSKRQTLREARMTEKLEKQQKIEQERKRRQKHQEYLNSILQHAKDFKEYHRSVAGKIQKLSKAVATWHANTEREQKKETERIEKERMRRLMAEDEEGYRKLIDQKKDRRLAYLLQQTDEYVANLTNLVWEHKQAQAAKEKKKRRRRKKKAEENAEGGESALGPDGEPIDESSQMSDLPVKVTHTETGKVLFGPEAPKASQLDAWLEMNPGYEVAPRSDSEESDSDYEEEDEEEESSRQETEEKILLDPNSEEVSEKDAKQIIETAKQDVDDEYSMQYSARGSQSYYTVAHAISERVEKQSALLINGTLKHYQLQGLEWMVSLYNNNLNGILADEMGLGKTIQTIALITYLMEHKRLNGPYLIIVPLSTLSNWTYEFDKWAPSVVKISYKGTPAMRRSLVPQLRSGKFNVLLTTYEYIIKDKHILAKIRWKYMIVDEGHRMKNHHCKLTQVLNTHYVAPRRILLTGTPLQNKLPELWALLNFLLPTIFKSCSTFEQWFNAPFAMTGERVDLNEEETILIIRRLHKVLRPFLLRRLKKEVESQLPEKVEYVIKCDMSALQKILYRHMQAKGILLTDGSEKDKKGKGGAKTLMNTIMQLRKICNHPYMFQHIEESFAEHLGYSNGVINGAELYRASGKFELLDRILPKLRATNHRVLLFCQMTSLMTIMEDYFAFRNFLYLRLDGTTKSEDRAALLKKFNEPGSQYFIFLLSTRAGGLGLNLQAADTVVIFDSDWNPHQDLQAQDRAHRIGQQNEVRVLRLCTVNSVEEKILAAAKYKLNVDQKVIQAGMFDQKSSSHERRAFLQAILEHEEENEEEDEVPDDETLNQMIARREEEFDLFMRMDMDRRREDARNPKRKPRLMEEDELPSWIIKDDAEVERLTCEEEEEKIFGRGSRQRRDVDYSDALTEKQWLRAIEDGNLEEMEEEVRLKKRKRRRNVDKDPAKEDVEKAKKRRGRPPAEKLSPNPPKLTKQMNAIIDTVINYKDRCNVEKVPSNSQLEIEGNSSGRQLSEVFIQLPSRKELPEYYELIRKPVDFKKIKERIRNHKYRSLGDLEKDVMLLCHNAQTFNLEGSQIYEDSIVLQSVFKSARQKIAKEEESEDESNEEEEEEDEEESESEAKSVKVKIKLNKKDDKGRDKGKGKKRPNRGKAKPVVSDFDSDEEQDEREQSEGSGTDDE

[9] = target: Heat shock protein HSP 90-alpha (Homo sapiens, UniProt P07900); type: functional, organism-based
[10] = target: T5, Probable nicotinate-nucleotide adenylyltransferase (Staphylococcus aureus (strain N315), UniProt P65502); type: functional, Staphylococcus aureus subsp. aureus N315; settings: read-out: IC50_Mean;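 on IC50 Mean: confirmatory dose-response retesting of NadD inhibitor hits first found in an ultra-high-throughput screen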
T5 sequence (P65502 whole entry): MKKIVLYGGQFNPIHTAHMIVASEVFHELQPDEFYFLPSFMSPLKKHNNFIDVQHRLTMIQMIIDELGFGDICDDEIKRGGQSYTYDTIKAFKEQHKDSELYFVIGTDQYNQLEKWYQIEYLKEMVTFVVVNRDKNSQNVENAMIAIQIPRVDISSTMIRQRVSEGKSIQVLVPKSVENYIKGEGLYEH

[11] = Luminescence Cell-Based Dose Retest to Confirm Inhibitors of Cancer Stem Cells. [Related pubchem assays (depositor defined):AID2717, AID2721]; type: functional; settings: Homo sapiens
[12] = viability loss of HMLE_sh_eGFP cells – cell-based, luminescence, counter-screen for HMLE_sh_ECad selective toxicity project, dose response (AID 463074); type: functional, Homo sapiens;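 further: HMLE human mammary epithelial cells expressing control shRNA against eGFP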
[13] = target: T5, Probable nicotinate-nucleotide adenylyltransferase; type: functional, Staphylococcus aureus subsp. aureus N315
[14] = target: T6, Rac GTPase-activating protein 1 (Homo sapiens, UniProt Q9H0H5); assay: blockers of MgcRacGAP-driven Rac1 GTP hydrolysis – biochemical, ADP Hunter fluorescence, primary and confirmatory, confirmation (AID 624330); type: functional
T6 sequence (Q9H0H5 whole entry): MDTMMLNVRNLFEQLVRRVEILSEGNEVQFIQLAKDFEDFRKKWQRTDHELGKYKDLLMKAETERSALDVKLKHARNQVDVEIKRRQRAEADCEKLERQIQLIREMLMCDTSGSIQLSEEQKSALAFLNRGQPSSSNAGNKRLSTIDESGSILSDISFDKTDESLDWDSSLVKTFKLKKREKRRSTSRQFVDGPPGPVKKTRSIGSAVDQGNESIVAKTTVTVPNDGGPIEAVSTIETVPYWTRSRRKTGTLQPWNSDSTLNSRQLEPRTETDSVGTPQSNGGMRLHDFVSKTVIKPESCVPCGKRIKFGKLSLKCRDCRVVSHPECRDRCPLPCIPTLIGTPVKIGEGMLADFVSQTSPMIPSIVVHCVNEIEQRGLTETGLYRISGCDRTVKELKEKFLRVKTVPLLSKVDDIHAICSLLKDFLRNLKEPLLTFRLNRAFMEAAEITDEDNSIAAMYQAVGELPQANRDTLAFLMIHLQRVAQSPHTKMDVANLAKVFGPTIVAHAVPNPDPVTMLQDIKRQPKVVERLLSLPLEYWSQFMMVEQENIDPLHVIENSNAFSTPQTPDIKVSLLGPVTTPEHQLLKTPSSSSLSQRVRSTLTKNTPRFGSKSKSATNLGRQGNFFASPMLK

[15] = target: T7, Corticotropin-releasing factor receptor 2/Corticotropin-releasing factor-binding protein (Homo sapiens, UniProt P24387+Q13324); assay: activators of CRF receptor 2 with binding protein – uHTS hits, confirmation (AID 602473); type: functional; settings: read-out: EC50_Mean
T7 sequence (Q13324 whole entry): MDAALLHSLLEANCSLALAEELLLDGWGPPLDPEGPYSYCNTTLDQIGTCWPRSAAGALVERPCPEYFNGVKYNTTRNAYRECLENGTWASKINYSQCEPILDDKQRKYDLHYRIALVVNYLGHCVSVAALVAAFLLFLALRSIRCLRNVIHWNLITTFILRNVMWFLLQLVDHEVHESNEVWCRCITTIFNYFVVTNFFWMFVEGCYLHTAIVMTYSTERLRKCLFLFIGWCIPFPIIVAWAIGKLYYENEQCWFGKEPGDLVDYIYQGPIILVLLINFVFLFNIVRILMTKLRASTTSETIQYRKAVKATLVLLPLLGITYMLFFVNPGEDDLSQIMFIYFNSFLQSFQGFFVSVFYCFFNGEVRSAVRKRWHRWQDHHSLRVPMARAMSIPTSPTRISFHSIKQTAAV
T7 sequence (P24387 whole entry): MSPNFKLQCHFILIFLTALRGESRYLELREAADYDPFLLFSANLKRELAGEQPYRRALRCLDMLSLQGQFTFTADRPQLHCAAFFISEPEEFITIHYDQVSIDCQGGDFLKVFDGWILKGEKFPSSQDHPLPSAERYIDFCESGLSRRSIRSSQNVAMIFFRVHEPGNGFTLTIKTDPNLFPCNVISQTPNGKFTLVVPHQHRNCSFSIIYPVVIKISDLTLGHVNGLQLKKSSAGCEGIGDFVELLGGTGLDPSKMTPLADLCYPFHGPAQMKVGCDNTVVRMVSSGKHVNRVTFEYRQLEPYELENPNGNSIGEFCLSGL

[16] = target: T7, Corticotropin-releasing factor receptor 2/Corticotropin-releasing factor-binding protein; assay: Dose Response confirmation of uHTS hits for small molecule antagonists of the CRF-binding protein and CRF-R2 receptor complex.; type: functional; settings: read-out: IC50_Mean

CN1/C(=C\C=N\c2ccccc2)C(C)(C)c2ccccc21
IC50 (Protein Wnt-3a): 7.05 µM (active)

O=C(NCCNc1ccnc2cc(Cl)ccc12)c1ccccc1F
IC50 (Protein Wnt-3a): 3.93 µM (active)
EC50 [1]: 39.7 µM (active)

COC(=O)c1cc(NC(=O)c2ccc(Cn3cc(Cl)cn3)o2)cc(C(=O)OC)c1
IC50 [2]: 41 µM (inactive)

O=C(NC(=S)NCCC1=CCCCC1)c1ccc(Br)o1
EC50 [3]: 15.1 µM (active)
EC50 (H4): 18.1 µM (active)
IC50 (Phospholipase A2): 9.44 µM (active)
IC50 (Cysteine protease ATG4B): 15.9 µM (active)
EC50 [4]: 83 µM (active)

CCN(CC)CCN1CCN(c2cncc(-c3cccc(N)c3)n2)CC1
AC50 [5]: 100 µM (inactive)
AC50 [6]: 1.56 µM (active)

C=COC(=O)c1sc2nc(C)cc(C)c2c1N
EC50 [7]: > 91.1 µM (inactive)
EC50 [8]: > 91.1 µM (inactive)

COc1ccc2c(c1)CCc1c(C(=O)N3CCc4ccccc4C3)noc1-2
AC50 [9]: 6.29 µM (active)

CCN(CC)CCOc1c(Br)ccc2c1sc1nc3n(c(=O)c12)CCC3
AC50 [5]: 8.15 µM (active)

Cc1ccc(N2C(=O)CC(N(CCc3ccccc3)C(=S)Nc3ccc(N(C)C)cc3)C2=O)cc1 (stereo not drawn)
IC50 [10]: 77.7 µM (active)
AC50 [11]: 5.65 µM (active)
AC50 [12]: 154 µM (active)
IC50 [13]: 36.8 µM (active)

O=C1C=CC(=O)N1c1ccc(Nc2ccccc2)cc1
IC50 [14]: 27 µM (active)
AC50 [9]: 1.85 µM (active)

O=C(Nc1nnc(SCc2ccc(F)cc2)s1)C1Cc2ccccc2CN1C(=O)c1ccco1 (stereo not drawn)
IC50 [10]: 34 µM (active)
IC50 [13]: 13.4 µM (active)

COc1ccc(-n2nnnc2SCC(=O)c2ccc(OC)c(OC)c2)cc1
IC50 [2]: 33 µM (inactive)
EC50 [15]: > 53 µM (inactive)
IC50 [16]: > 47.1 µM (inactive)

CCOC(=O)c1ccccc1N1C(=O)C2Sc3nc(O)sc3C(/C=C/c3ccccc3)C2C1=O (stereo not drawn)
IC50 [10]: 45.9 µM (active)
IC50 [13]: 12.2 µM (active)
